Structures can show the parent of a compound that is named as a salt. Where two headings read alike, the source gives them in different places.
Tests used:
[1] = biological target: full-length human PRMT8 isoform 1 (Homo sapiens, UniProt Q9NR22); experiment: PRMT8 Biochemical Assay (3H-SAM Flashplate, peptide substrate); settings: read-out: Biochemical IC50 PRMT8
How it was run: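 Scintillation Flashplate capture of biotinylated histone H4 (31-45) peptide (150 nM) methylated by 1.5 nM PRMT8 using 3H-SAM (50 nM) with unlabelled SAM (550 nM); enzyme and compound preincubated 30 min, room temperature, in Bicine pH 7.6 buffer with TCEP, BSG, Tween 20 and 2% DMSO. Stopped with excess cold SAM (400 uM); IC50 from % inhibition, min control 1 mM SAH.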

[2] = biological target: full-length human PRMT1 isoform 1 (GST-tagged) (Homo sapiens, UniProt Q99873); experiment: PRMT1 Biochemical Assay (3H-SAM Flashplate, peptide substrate)
full-length human PRMT1 isoform 1 (GST-tagged), sequence (Q99873 with tags, fused parts or gaps): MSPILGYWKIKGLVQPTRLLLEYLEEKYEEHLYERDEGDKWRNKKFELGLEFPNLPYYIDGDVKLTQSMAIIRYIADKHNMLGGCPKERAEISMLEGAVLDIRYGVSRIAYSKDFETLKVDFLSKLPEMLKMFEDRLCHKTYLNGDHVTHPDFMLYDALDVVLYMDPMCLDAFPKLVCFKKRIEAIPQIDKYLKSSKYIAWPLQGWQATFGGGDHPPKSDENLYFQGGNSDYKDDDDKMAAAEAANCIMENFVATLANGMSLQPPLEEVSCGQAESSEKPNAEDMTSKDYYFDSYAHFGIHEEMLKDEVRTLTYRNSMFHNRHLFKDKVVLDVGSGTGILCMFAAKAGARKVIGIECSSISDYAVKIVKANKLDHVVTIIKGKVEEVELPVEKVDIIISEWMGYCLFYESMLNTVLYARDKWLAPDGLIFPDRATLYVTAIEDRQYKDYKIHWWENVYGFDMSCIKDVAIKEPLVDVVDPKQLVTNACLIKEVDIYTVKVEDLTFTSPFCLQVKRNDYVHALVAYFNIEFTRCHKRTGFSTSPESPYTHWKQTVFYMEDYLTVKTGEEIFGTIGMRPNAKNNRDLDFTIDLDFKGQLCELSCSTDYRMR
How it was run: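 Tritiated methyl transfer from 3H-SAM onto biotinylated peptide, captured on streptavidin Flashplates and counted. Baculovirus-expressed GST-PRMT1 and compound were preincubated 30 min at room temperature in Bicine buffer pH 7.6. Cold SAM at 300 uM final ended the reaction.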

[3] = single experiment or average of multiple experiments

full-length human PRMT8 isoform 1, sequence (Q9NR22 whole entry, canonical isoform): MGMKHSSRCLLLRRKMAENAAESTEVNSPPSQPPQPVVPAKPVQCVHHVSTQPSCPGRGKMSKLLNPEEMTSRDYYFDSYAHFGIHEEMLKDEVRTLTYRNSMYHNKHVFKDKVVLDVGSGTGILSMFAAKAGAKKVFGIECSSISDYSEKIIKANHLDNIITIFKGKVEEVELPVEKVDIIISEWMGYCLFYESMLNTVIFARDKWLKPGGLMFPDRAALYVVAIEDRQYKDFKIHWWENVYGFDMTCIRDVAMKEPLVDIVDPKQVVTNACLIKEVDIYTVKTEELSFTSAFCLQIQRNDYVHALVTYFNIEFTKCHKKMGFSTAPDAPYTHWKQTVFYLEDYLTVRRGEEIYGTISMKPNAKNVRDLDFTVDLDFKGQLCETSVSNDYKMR

Row | IC50 [1] [µM] | IC50 [1, 3] [µM] | IC50 [2] [µM] | IC50 [2, 3] [µM] | SMILES
1 | < 0.1 | 0.0724 | < 0.1 | 0.0337 | CNCCN(C)Cc1c[nH]nc1C1CCC(C)(C)[C@H](C(=O)NCC(C)C)C1 (stereo partly drawn) [Compound 262]
2 | 0.101 to 1 | 0.181 | < 0.1 | 0.078 | CNCCN(C)Cc1c[nH]nc1C1CCC(C)(C)[C@H](C(=O)NCCOC)C1 (stereo partly drawn) [Compound 264]
3 | < 0.1 | 0.0167 | < 0.1 | 0.013 | CNCCN(C)Cc1c[nH]nc1[C@H]1CC[C@@H](N(CCOC)C(=O)CCC(C)C)CC1 [Compound 261]
4 | < 0.1 | 0.044 | < 0.1 | 0.0173 | CNCCN(C)Cc1c[nH]nc1[C@H]1CC[C@H](N(CCOC)C(=O)CCC(C)C)CC1 [Compound 254]
5 | 3.01 to 10 | 5.91 | 3.01 to 10 | 3.5 | CNCCN(C)Cc1c[nH]nc1C1C[C@H](C(=O)N(C)CC(C)C)C(C)(C)[C@H](C(=O)N(C)CC(C)C)C1 (stereo partly drawn) [Compound 267]
6 | < 0.1 | 0.0245 | < 0.1 | 0.0102 | CNCCN(C)Cc1c[nH]nc1C1CCC(C)(C)[C@@H](C(=O)OC)C1 (stereo partly drawn) [Compound 255]
7 | < 0.1 | 0.031 | < 0.1 | 0.0298 | CNCCN(C)Cc1cnn(C)c1[C@H]1CC[C@]2(CC1)CC(C)(C)CO2 [Compound 257]

The next lines start with the molecule.

Row | SMILES | IC50 [1] [µM] | IC50 [1, 3] [µM] | IC50 [2] [µM] | IC50 [2, 3] [µM]
8 | CNCCN(C)Cc1c[nH]nc1[C@H]1CC[C@H](N(CC(C)C)C(=O)CCOc2ccccc2)CC1 [Compound 232] | < 0.1 | 0.021 | < 0.1 | 0.00911
9 | CNCCN(C)Cc1c[nH]nc1[C@H]1CC[C@]2(CCN(Cc3cc(F)cc(F)c3)C2=O)CC1 [Compound 197] | < 0.1 | 0.0156 | < 0.1 | 0.00827
10 | CNCCN(C)Cc1cn(C)nc1[C@H]1CC[C@]2(CC1)CC(C)(C)CO2 [Compound 206, Methyl([1-methyl-3-[(5R,8S)-3,3-dimethyl-1-oxaspiro[4.5]decan-8-yl]-1H-pyrazol-4-yl]methyl)[2-(methylamino)ethyl]amine hydrochloride] | < 0.1 | 0.0289 | < 0.1 | 0.0195
11 | CCN(C(=O)CC(C)C)[C@H]1CC[C@@H](c2n[nH]cc2CN(C)CCNC)CC1 [Compound 240] | < 0.1 | 0.0109 | < 0.1 | 0.0061
12 | CNCCN(C)Cc1c[nH]nc1[C@H]1CC[C@H](O)CC1 [Compound 227, 4-[4-([methyl[2-(methylamino)ethyl]amino]methyl)-1H-pyrazol-3-yl]cyclohexan-1-ol trifluoroacetate] | < 0.1 | 0.0358 | < 0.1 | 0.0168
13 | CNCCN(C)Cc1c[nH]nc1[C@H]1CC[C@@H](N(CCOc2ccccc2)C(=O)CC(C)C)CC1 [Compound 222] | < 0.1 | 0.09 | < 0.1 | 0.043
14 | CNCCN(C)Cc1c[nH]nc1[C@H]1CC[C@@H](C(=O)N(C)CCC(C)C)CC1 [Compound 210] | < 0.1 | 0.0229 | < 0.1 | 0.0131
15 | CCN(C(=O)CC(C)C)[C@H]1CC[C@H](c2n[nH]cc2CN(C)CCNC)CC1 [Compound 239] | < 0.1 | 0.0132 | < 0.1 | 0.00655
16 | CNCCN(C)Cc1c[nH]nc1[C@H]1CC[C@H](N(CCC(C)C)C(=O)CCCOC)CC1 [Compound 238] | < 0.1 | 0.0801 | < 0.1 | 0.0296
17 | CCN(C(=O)CCOc1ccccc1)[C@H]1CC[C@@H](c2n[nH]cc2CN(C)CCNC)CC1 [Compound 224] | < 0.1 | 0.0102 | < 0.1 | 0.00927
18 | CNCCN(C)Cc1c[nH]nc1C1CCC(F)(F)CC1 [Compound 216] | < 0.1 | 0.0178 | < 0.1 | 0.0121
19 | CNCCN(C)Cc1c[nH]nc1[C@H]1CC[C@@H](N(CCCOC)C(=O)CCOc2ccccc2)CC1 [Compound 246] | < 0.1 | 0.0238 | < 0.1 | 0.0126
20 | CCC(=O)N(CCOc1ccccc1)[C@H]1CC[C@@H](c2n[nH]cc2CN(C)CCNC)CC1 [Compound 220] | < 0.1 | 0.0129 | < 0.1 | 0.00929
21 | CNCCN(C)Cc1c[nH]nc1[C@H]1CC[C@@H](C(=O)N(CCCOC)CCC(C)C)CC1 [Compound 214] | < 0.1 | 0.0274 | < 0.1 | 0.0198

Reference: US11512053B2, “Arginine methyltransferase inhibitors and uses thereof” (priority 2013, dated 2022)
